Measured values reported in patent EP0923292B1, “IMPROVED METHOD FOR SYSTEMIC ADMINISTRATION OF 2,4-DIENOIC ACID-TYPE INSECTICIDES TO TERRESTRIAL MAMMALS” (priority 1996, dated 1998).

Tests used:
adult cat fleas C. felis = experiment: Flea ovicidal activity in vitro: artificial feeding system with blood drawn from treated dogs (Example 3); conditions: fed to fleas
From the text: For the in vitro tests, an artificial feeding system with cages for adult cat fleas C. felis was used as described by Wade, S.E., et al., J. Med. Ent. 25(3): 186-190 (May 1988). Inside each cage were placed 100 one-week-old, unfed adult C. fells. Each cage included a container for treated blood separated from the fleas by a PARAFILM® membrane, and a compartment containing thin strips of paper to support loosely arranged clean dog hair and to provide a foothold for the fleas as they fed on the blood through the membrane.
Fifteen healthy male beagle dogs, one year of age, with weights ranging from 10.29 kg to 13.87 kg, were divided into three groups of five dogs each. One group was fed an initial bolus of 50 mg/kg of (S)-methoprene, followed by daily feeding a standard maintenance diet containing 0.02% (S)-methoprene. The second group was fed an initial bolus of 25 mg/kg of (S)-methoprene, followed by daily feeding a standard maintenance diet containing 0.01% (S)-methoprene. The third group received the same diet but with no (S)-methoprene, thereby serving as a control. The daily feeding of 0.02% (S)-methoprene in the first group amounted to approximately 3.6 mg/kg, while the daily feeding of 0.01% (S)-methoprene in the second group amounted to approximately 1.8 mg/kg. The (S)-methoprene was administered in a gelatin capsule, the control involved administration of a gelatin capsule containing vegetable oil instead of (S)-methoprene, and the standard diet was a Science Diet Canine Maintenance. The daily feeding of the (S)-methoprene continued for six weeks following the initial bolus.
Seven days after the initial bolus and weekly thereafter for five more weeks except week 4, 50 mL of blood was collected from each dog into a syringe preloaded with 3 mL of a 20% (by weight) aqueous sodium citrate solution. The five 50-mL samples from each treatment group were pooled at each bleeding. Aliquots of 10 mL each from each pool were placed in separate feeding chambers of the artificial flea feeding cages.
Flea eggs were collected from each cage at appropriate intervals. One hundred (100) healthy appearing […] were counted under a dissecting microscope from each cage, divided into two subsamples, and placed in 60 mm x 15 mm plastic petri dishes. The samples were incubated at 78°F and 85% relative humidity for three days, then scored for larval hatch by visual observation through the dissecting microscope. The data from all replicates in each treatment group were combined to yield the mean percent egg hatch, and the percent inhibition of egg hatch was calculated relative to the control.

[1] = Concentration of (S)-methoprene in dog blood following oral administration (HPLC); type: in vivo, dogs; conditions: random-bred, whole blood, 50 mg/kg
From the text: Twelve random-bred adult dogs of various sex and medium hair coat were selected based on hair coat, health, and individual habits. The twelve dogs were grouped into two groups of six dogs each. Dog weights ranged from 22.5 kg to 35.0 kg, and the various weights and each sex were represented in each group. The dogs received a measured amount of Science Diet maintenance dog food daily and water was available. The two groups of dogs were housed separately. The dogs of Group 1 were not given any treatments, whereas those of Group 2 were each given 50 mg/kg of technical (S)-methoprene one time only at the start of the study (Day 0).
Blood samples were taken periodically by drawing the samples into 10 cc disposable syringes and transferring them to labeled 5 mL heparinized EDTA vacutainers treated with […] of paraoxon solution at a concentration of 1 x 10^-2 M. The blood samples were frozen until ready for analysis. Hair samples were clipped from the dogs on the same days that blood samples were taken, then placed in labeled freezer jars with aluminum foil seals, and frozen.
To analyze the blood samples, the samples were extracted three times with methyl t-butyl ether, evaporated, reconstituted in 1 mL of methanol, and analyzed by HPLC as in the hair analyses.

C. felis = experiment: Systemic ovicidal activity upon oral administration (initial bolus plus daily diet) to host dogs (Example 3); type: in vivo, C. felis (host: dogs); conditions: eggs collected from the dogs, week 4
From the text: Eleven days before the administration of the first gelatin capsule (i.e., on Day -11), and weekly thereafter through Day 59, each dog was infested with approximately 200 one-to two-week-old, unfed adult C. fells fleas of mixed sex ratio. Each dog was restrained for about one minute while the fleas were released along the dorsum.
Flea eggs were collected on Days -7, 0, 1, 2, 4, 7, and weekly thereafter through Day 63. Prior to egg collection, the cages in which the dogs were housed and the collection trays were rinsed with isopropyl alcohol, and the water was turned off, feed bowls and resting pads were removed from each cage. […] Using a dissecting microscope and a fine tipped artist brush, 100 flea eggs were counted from the sweepings of each dog and separated into four replicates of 25 eggs each. […] Seventy two hours after collection, larvae emergence was determined. Both dead and live larvae were counted to determine the ovicidal effect of the treatment. […]
Three days prior to the week 4 data point, each dog was infested with fleas in the manner described in Example 2. At week 4, flea eggs were collected from the dogs themselves in the manner described in Example 2, and the percent inhibition of egg hatch for the fleas collected in this manner was determined as in Example 2.

SMILES: COC(C)(C)CCC[C@H](C)C/C=C/C(C)=C/C(=O)OC(C)C [(S)-Methoprene, 1-isopropyl (E,E)-11-methoxy-3,7,11-trimethyl dodecadi-2,4-enoate]
- Percent Inhibition of Flea Egg Hatching (adult cat fleas C. felis; pooled blood of dogs given initial bolus 25 mg/kg then daily diet 0.01% (S)-methoprene, week 1): 6%
- Percent Inhibition of Flea Egg Hatching (adult cat fleas C. felis; pooled blood of dogs given initial bolus 25 mg/kg then daily diet 0.01% (S)-methoprene, week 3): 38%
- Percent Inhibition of Flea Egg Hatching (adult cat fleas C. felis; pooled blood of dogs given initial bolus 25 mg/kg then daily diet 0.01% (S)-methoprene, week 5): 24%
- Percent Inhibition of Flea Egg Hatching (adult cat fleas C. felis; pooled blood of dogs given initial bolus 25 mg/kg then daily diet 0.01% (S)-methoprene, week 6): 19%
- Percent Inhibition of Flea Egg Hatching (adult cat fleas C. felis; pooled blood of dogs given initial bolus 50 mg/kg then daily diet 0.02% (S)-methoprene, week 1): 33%
- Percent Inhibition of Flea Egg Hatching (adult cat fleas C. felis; pooled blood of dogs given initial bolus 50 mg/kg then daily diet 0.02% (S)-methoprene, week 3): 48%
- Percent Inhibition of Flea Egg Hatching (adult cat fleas C. felis; pooled blood of dogs given initial bolus 50 mg/kg then daily diet 0.02% (S)-methoprene, week 5): 38%
- Percent Inhibition of Flea Egg Hatching (adult cat fleas C. felis; pooled blood of dogs given initial bolus 50 mg/kg then daily diet 0.02% (S)-methoprene, week 6): 22%
- concentration at 1 day ([1]; Dog #60, oral 50 mg/kg one time on Day 0, day 1): 117 ng/g
- concentration at 3 day ([1]; Dog #60, oral 50 mg/kg one time on Day 0, day 3): 36 ng/g
- concentration at 1 day ([1]; Dog #98, oral 50 mg/kg one time on Day 0, day 1): 97.2 ng/g
- concentration at 1 day ([1]; Dog #528, oral 50 mg/kg one time on Day 0, day 1): 165 ng/g
- concentration at 3 day ([1]; Dog #528, oral 50 mg/kg one time on Day 0, day 3): 63.6 ng/g
- concentration at 1 day ([1]; Dog #529, oral 50 mg/kg one time on Day 0, day 1): 172 ng/g
- concentration at 3 day ([1]; Dog #529, oral 50 mg/kg one time on Day 0, day 3): 52.1 ng/g
- concentration at 7 day ([1]; Dog #529, oral 50 mg/kg one time on Day 0, day 7): 55.7 ng/g
- concentration at 1 day ([1]; Dog #534, oral 50 mg/kg one time on Day 0, day 1): 146 ng/g
- concentration at 3 day ([1]; Dog #534, oral 50 mg/kg one time on Day 0, day 3): 94.2 ng/g
- concentration at 5 day ([1]; Dog #534, oral 50 mg/kg one time on Day 0, day 5): 66.8 ng/g
- concentration at 1 day ([1]; Dog #535, oral 50 mg/kg one time on Day 0, day 1): 239 ng/g
- concentration at 3 day ([1]; Dog #535, oral 50 mg/kg one time on Day 0, day 3): 93.3 ng/g
- concentration at 5 day ([1]; Dog #535, oral 50 mg/kg one time on Day 0, day 5): 47.7 ng/g
- Percent Inhibition of Flea Egg Hatching (C. felis; initial bolus 25 mg/kg then daily diet 0.01% (S)-methoprene): 100%
- Percent Inhibition of Flea Egg Hatching (C. felis; initial bolus 50 mg/kg then daily diet 0.02% (S)-methoprene): 100%
